Test results from ChEMBL document CHEMBL2150877, “γ-Secretase modulators as potential disease modifying anti-Alzheimer's drugs” (J Med Chem, 2011).

Experiments:
Mus musculus [1] = test: Antialzheimer activity in po dosed YAC transgenic mouse model assessed as reduction in Abeta42 levels; assay type: functional
Mus musculus [2] = test: Antialzheimer activity in po dosed YAC transgenic mouse model assessed as plasma compound concentration causing reduction in brain Abeta42 levels; assay type: functional, organism-based
Mus musculus [3] = test: Antialzheimer activity in YAC transgenic mouse model assessed as reduction in brain Abeta42 levels at 10 mg/kg, po measured after 7 hrs; assay type: functional; parameters: scale not given: the % may be the effect or the level left
[4] = Inhibition of gamma secretase assessed as reduction in Abeta42 production
Mus musculus [5] = test: Antialzheimer activity in po dosed YAC transgenic mouse model assessed as brain compound concentration causing reduction in brain Abeta42 levels; assay type: functional, organism-based
[6] = Inhibition of gamma secretase expressed in CHO cells assessed as reduction in Abeta40 and Abeta 42 production; assay type: cell-based
Mus musculus [7] = test: Antialzheimer activity in Tg2576 mouse assessed as reduction in Abeta42 production at 25 mg/kg, po after 18 hrs; assay type: functional; parameters: scale not given: the % may be the effect or the level left
[8] = Inhibition of gamma secretase expressed in CHO cells assessed as reduction in Abeta42 production; assay type: cell-based
Mus musculus [9] = test: Antialzheimer activity in transgenic Alzheimer disease mouse model assessed as increase in recognition index at 375 ppm dosed for 10 months by object recognition memory test (reference value: 48.9%); assay type: functional
[10] = Drug level in mouse plasma dosed for 4 weeks; assay type: ADME, organism-based
Mus musculus [11] = test: Brain penetration in mouse assessed as brain/plasma ratio at 100 or 300 mg/kg/day for 4 to 5 days; assay type: ADME, organism-based; conditions: in vivo
Mus musculus [12] = test: Antialzheimer activity in transgenic Alzheimer disease mouse model assessed as increase in recognition index at 125 ppm dosed for 10 months by object recognition memory test (reference value: 48.9%); assay type: functional
Mus musculus [13] = test: Antialzheimer activity in transgenic hAPP mouse expressing Swedish and London mutations assessed as reduction in plaque area in brain cortex dosed for 6 months; assay type: functional; parameters: scale not given: the % may be the effect or the level left
Mus musculus [14] = test: Antialzheimer activity in transgenic hAPP mouse expressing Swedish and London mutations assessed as reduction in plaque number in brain hippocampus dosed for 6 months; assay type: functional; parameters: scale not given: the % may be the effect or the level left
Mus musculus [15] = test: Antialzheimer activity in transgenic hAPP mouse expressing Swedish and London mutations assessed as reduction in plaque number in brain cortex dosed for 6 months; assay type: functional; parameters: scale not given: the % may be the effect or the level left
[16] = Drug level in brain of Tg2576 mouse expressing human APP Swedish mutant at 60 mg/kg/day after 17 weeks; assay type: ADME, organism-based; conditions: read-out: Drug uptake
[17] = Drug level in mouse brain dosed for 4 weeks; assay type: ADME, organism-based; conditions: read-out: Drug uptake
Mus musculus [18] = test: Antialzheimer activity in transgenic hAPP mouse expressing Swedish and London mutations assessed as reduction in plaque area in brain hippocampus dosed for 6 months; assay type: functional; parameters: scale not given: the % may be the effect or the level left

| EC50 (Mus musculus [2]) | IC50 [4] | EC50 (Mus musculus [5]) | concentration at 672 h [10] | permeability (Mus musculus [11]) | concentration at 2856 h [16] | concentration at 672 h [17] | SMILES | ED50 (Mus musculus [1]) | Activity (Mus musculus [3]) | IC50 [6] | Activity (Mus musculus [7]) | IC50 [8] | Activity (Mus musculus [9]) | Activity (Mus musculus [12]) | Activity (Mus musculus [13]) | Activity (Mus musculus [14]) | Activity (Mus musculus [15]) | Activity (Mus musculus [18]) |
| --- | --- | --- | --- | --- | --- | --- | --- | --- | --- | --- | --- | --- | --- | --- | --- | --- | --- | --- |
| 3.7 µM | 0.6 µM | 1 µM | – | – | – | – | CC(C)(C)CC[C@H](CCC(F)(F)F)N1CCC(F)(F)[C@H](CC(=O)O)[C@H]1c1ccc(C(F)(F)F)cc1 | 5 mg/kg | 84% | – | – | – | – | – | – | – | – | – |
| – | – | – | – | – | – | – | CC(C)=CCCC(C)(O)[C@H]1CC[C@]2(C)[C@@H]1[C@H](O)C[C@@H]1[C@@]3(C)CC[C@H](O[C@@H]4O[C@H](CO)[C@@H](O)[C@H](O)[C@H]4O[C@@H]4O[C@H](CO)[C@@H](O)[C@H](O)[C@H]4O)C(C)(C)[C@@H]3CC[C@]12C (some centres undefined) | – | – | 200 µM | 20% | 25 µM | – | – | – | – | – | – |
| – | 40 µM | – | 580 µM | 5% | 6.4 µM | 20 µM | O=C(O)C1(c2ccc(-c3ccc(Cl)c(Cl)c3)c(F)c2)CC1 | – | – | – | – | – | 64.1% | 62.2% | 32% | 34% | 28% | 42% |
